Reference: the NIST ThermoML archive (doi:10.1021/je060271a)
Where “and” joins values, the source holds several entries; their conditions need not be identical. Equal values may be shown once. Numbers after ± are expanded uncertainties.

Details: Liquid, Vibrating tube method

## CCCCCC(=O)OCC(COC(=O)CCCCC)(COC(=O)CCCCC)COC(=O)CCCCC [pentaerythritol tetrahexanoate]
343.16 K, 33002 kPa
  mass density: 980 ± 1.2 kg/m3
343.16 K, 33028 kPa
  mass density: 980.1 ± 1.2 kg/m3
343.16 K, 33054 kPa
  mass density: 980.2 ± 1.2 kg/m3
343.16 K, 33085 kPa
  mass density: 980.1 ± 1.2 kg/m3
343.16 K, 33111 kPa
  mass density: 980.2 ± 1.2 kg/m3
343.16 K, 33138 kPa
  mass density: 980.1 ± 1.2 kg/m3
343.16 K, 33170 kPa
  mass density: 980.2 ± 1.2 kg/m3
343.16 K, 33198 kPa
  mass density: 980.2 ± 1.2 kg/m3
343.16 K, 33224 kPa
  mass density: 980.2 ± 1.4 kg/m3
343.16 K, 33250 kPa
  mass density: 980.3 ± 1.2 kg/m3
343.16 K, 33277 kPa
  mass density: 980.2 ± 1.2 kg/m3
343.16 K, 33310 kPa
  mass density: 980 ± 1.2 kg/m3
343.16 K, 33337 kPa
  mass density: 980.3 ± 1.2 kg/m3
343.16 K, 33364 kPa
  mass density: 980.3 ± 1.2 kg/m3
343.16 K, 33397 kPa
  mass density: 980.3 ± 1.2 kg/m3
343.16 K, 33424 kPa
  mass density: 980.3 ± 1.2 kg/m3
343.16 K, 33458 kPa
  mass density: 980.4 ± 1.2 kg/m3
343.16 K, 33486 kPa
  mass density: 980.4 ± 1.2 kg/m3
343.16 K, 33515 kPa
  mass density: 980.2 ± 1.2 kg/m3
343.16 K, 33551 kPa
  mass density: 980.4 ± 1.2 kg/m3
343.16 K, 33582 kPa
  mass density: 980.5 ± 1.2 kg/m3
343.16 K, 33613 kPa
  mass density: 980.4 ± 1.2 kg/m3
343.16 K, 33643 kPa
  mass density: 980.7 ± 1.2 kg/m3
343.16 K, 33678 kPa
  mass density: 980.5 ± 1.2 kg/m3
343.16 K, 33700 kPa
  mass density: 980.5 ± 1.2 kg/m3
343.16 K, 33718 kPa
  mass density: 980.5 ± 1.2 kg/m3
343.16 K, 33738 kPa
  mass density: 980.5 ± 1.2 kg/m3
343.16 K, 33761 kPa
  mass density: 980.6 ± 1.2 kg/m3
343.16 K, 33781 kPa
  mass density: 980.6 ± 1.2 kg/m3
343.16 K, 33806 kPa
  mass density: 980.6 ± 1.2 kg/m3
343.16 K, 33826 kPa
  mass density: 980.6 ± 1.2 kg/m3
343.16 K, 33846 kPa
  mass density: 980.6 ± 1.2 kg/m3
343.16 K, 33868 kPa
  mass density: 980.6 ± 1.2 kg/m3
343.16 K, 33883 kPa
  mass density: 980.7 ± 1.2 kg/m3
343.16 K, 33898 kPa
  mass density: 980.7 ± 1.2 kg/m3
343.16 K, 33914 kPa
  mass density: 980.8 ± 1.2 kg/m3
343.16 K, 33932 kPa
  mass density: 980.6 ± 1.2 kg/m3
343.16 K, 33948 kPa
  mass density: 980.7 ± 1.2 kg/m3
343.16 K, 33966 kPa
  mass density: 980.7 ± 1.2 kg/m3
343.16 K, 33982 kPa
  mass density: 980.5 ± 1.2 kg/m3
343.16 K, 33995 kPa
  mass density: 980.7 ± 1.2 kg/m3
343.16 K, 34005 kPa
  mass density: 980.7 ± 1.2 kg/m3
343.16 K, 34016 kPa
  mass density: 980.8 ± 1.2 kg/m3
343.16 K, 34026 kPa
  mass density: 980.7 ± 1.2 kg/m3
343.16 K, 34034 kPa
  mass density: 980.8 ± 1.2 kg/m3
343.16 K, 34035 kPa
  mass density: 980.7 ± 1.2 kg/m3
343.16 K, 34036 kPa
  mass density: 980.8 ± 1.2 kg/m3
343.16 K, 34037 kPa
  mass density: 980.9 ± 1.2 kg/m3 and 980.6 ± 1.2 kg/m3
343.16 K, 34047 kPa
  mass density: 980.7 ± 1.2 kg/m3
343.16 K, 34048 kPa
  mass density: 980.7 ± 1.2 kg/m3
343.16 K, 34058 kPa
  mass density: 980.8 ± 1.2 kg/m3
343.16 K, 34091 kPa
  mass density: 980.7 ± 1.2 kg/m3
343.16 K, 34101 kPa
  mass density: 980.8 ± 1.2 kg/m3
343.16 K, 34114 kPa
  mass density: 980.8 ± 1.2 kg/m3
343.16 K, 34125 kPa
  mass density: 980.7 ± 1.2 kg/m3
343.16 K, 34137 kPa
  mass density: 980.8 ± 1.2 kg/m3
343.16 K, 34151 kPa
  mass density: 980.7 ± 1.2 kg/m3
343.16 K, 34163 kPa
  mass density: 980.8 ± 1.2 kg/m3
343.16 K, 34177 kPa
  mass density: 980.7 ± 1.2 kg/m3
343.16 K, 34189 kPa
  mass density: 980.8 ± 1.2 kg/m3
343.16 K, 34190 kPa
  mass density: 980.9 ± 1.2 kg/m3
343.16 K, 34198 kPa
  mass density: 980.8 ± 1.2 kg/m3
343.16 K, 34203 kPa
  mass density: 980.8 ± 1.2 kg/m3
343.16 K, 34211 kPa
  mass density: 980.7 ± 1.2 kg/m3
343.16 K, 34217 kPa
  mass density: 980.8 ± 1.2 kg/m3
343.16 K, 34223 kPa
  mass density: 980.8 ± 1.2 kg/m3
343.16 K, 34231 kPa
  mass density: 980.7 ± 1.2 kg/m3
343.16 K, 34237 kPa
  mass density: 980.9 ± 1.2 kg/m3
343.16 K, 34243 kPa
  mass density: 980.7 ± 1.2 kg/m3
343.16 K, 34248 kPa
  mass density: 980.8 ± 1.2 kg/m3
343.16 K, 34251 kPa
  mass density: 980.9 ± 1.2 kg/m3
343.16 K, 34253 kPa
  mass density: 980.9 ± 1.2 kg/m3
343.16 K, 34254 kPa
  mass density: 980.8 ± 1.2 kg/m3 and 980.9 ± 1.2 kg/m3
343.16 K, 34255 kPa
  mass density: 980.8 ± 1.2 kg/m3 and 980.9 ± 1.2 kg/m3
343.16 K, 34256 kPa
  mass density: 980.8 ± 1.2 kg/m3 and 980.9 ± 1.2 kg/m3 and 980.7 ± 1.2 kg/m3
343.16 K, 34257 kPa
  mass density: 980.9 ± 1.2 kg/m3
343.16 K, 34258 kPa
  mass density: 980.8 ± 1.2 kg/m3 and 980.7 ± 1.2 kg/m3
343.16 K, 34259 kPa
  mass density: 981 ± 1.2 kg/m3
343.16 K, 34262 kPa
  mass density: 980.9 ± 1.2 kg/m3
343.16 K, 34263 kPa
  mass density: 980.8 ± 1.2 kg/m3 and 980.9 ± 1.2 kg/m3
343.16 K, 34264 kPa
  mass density: 980.9 ± 1.2 kg/m3
343.16 K, 34265 kPa
  mass density: 980.9 ± 1.2 kg/m3 and 980.8 ± 1.2 kg/m3
343.16 K, 34266 kPa
  mass density: 980.8 ± 1.2 kg/m3 and 980.9 ± 1.2 kg/m3
343.16 K, 34267 kPa
  mass density: 980.8 ± 1.2 kg/m3 and 981 ± 1.2 kg/m3 and 980.9 ± 1.2 kg/m3
343.16 K, 34268 kPa
  mass density: 980.8 ± 1.2 kg/m3 and 980.9 ± 1.2 kg/m3
343.16 K, 34269 kPa
  mass density: 980.8 ± 1.2 kg/m3 and 980.9 ± 1.2 kg/m3
343.16 K, 34270 kPa
  mass density: 980.9 ± 1.2 kg/m3 and 980.8 ± 1.2 kg/m3
343.16 K, 34271 kPa
  mass density: 980.8 ± 1.2 kg/m3
343.16 K, 34272 kPa
  mass density: 981 ± 1.2 kg/m3
343.16 K, 34273 kPa
  mass density: 980.9 ± 1.2 kg/m3
343.16 K, 34274 kPa
  mass density: 980.9 ± 1.2 kg/m3
343.16 K, 34275 kPa
  mass density: 980.8 ± 1.2 kg/m3
343.16 K, 34276 kPa
  mass density: 980.9 ± 1.2 kg/m3
343.16 K, 34277 kPa
  mass density: 980.9 ± 1.2 kg/m3
343.16 K, 34278 kPa
  mass density: 980.9 ± 1.2 kg/m3
343.16 K, 34279 kPa
  mass density: 980.8 ± 1.2 kg/m3
343.16 K, 34283 kPa
  mass density: 980.9 ± 1.2 kg/m3
343.16 K, 34284 kPa
  mass density: 980.9 ± 1.2 kg/m3 and 980.8 ± 1.2 kg/m3 and 981 ± 1.2 kg/m3
343.16 K, 34285 kPa
  mass density: 980.9 ± 1.2 kg/m3
343.16 K, 34286 kPa
  mass density: 980.8 ± 1.2 kg/m3
343.16 K, 34287 kPa
  mass density: 980.9 ± 1.2 kg/m3 and 981 ± 1.2 kg/m3
343.16 K, 34288 kPa
  mass density: 980.9 ± 1.2 kg/m3
343.16 K, 34289 kPa
  mass density: 980.9 ± 1.2 kg/m3
343.16 K, 34290 kPa
  mass density: 980.8 ± 1.2 kg/m3 and 980.9 ± 1.2 kg/m3
343.16 K, 34291 kPa
  mass density: 980.9 ± 1.2 kg/m3
343.16 K, 34292 kPa
  mass density: 980.9 ± 1.2 kg/m3
343.16 K, 34293 kPa
  mass density: 980.9 ± 1.2 kg/m3
343.16 K, 34294 kPa
  mass density: 980.9 ± 1.2 kg/m3
343.16 K, 34295 kPa
  mass density: 980.8 ± 1.2 kg/m3
343.16 K, 34296 kPa
  mass density: 980.9 ± 1.2 kg/m3
343.16 K, 34297 kPa
  mass density: 980.9 ± 1.2 kg/m3
343.16 K, 34298 kPa
  mass density: 980.9 ± 1.2 kg/m3 and 981 ± 1.2 kg/m3
343.16 K, 34300 kPa
  mass density: 980.9 ± 1.2 kg/m3
343.16 K, 34301 kPa
  mass density: 980.8 ± 1.2 kg/m3
343.16 K, 34303 kPa
  mass density: 980.9 ± 1.2 kg/m3
343.16 K, 34305 kPa
  mass density: 980.9 ± 1.2 kg/m3
343.16 K, 34307 kPa
  mass density: 980.9 ± 1.2 kg/m3
343.16 K, 34310 kPa
  mass density: 981 ± 1.2 kg/m3
343.16 K, 34312 kPa
  mass density: 980.8 ± 1.2 kg/m3
343.16 K, 34315 kPa
  mass density: 980.9 ± 1.2 kg/m3
343.16 K, 34319 kPa
  mass density: 980.9 ± 1.2 kg/m3
343.16 K, 34322 kPa
  mass density: 980.9 ± 1.2 kg/m3
343.16 K, 34326 kPa
  mass density: 980.9 ± 1.2 kg/m3
343.16 K, 34332 kPa
  mass density: 980.8 ± 1.2 kg/m3
343.16 K, 34336 kPa
  mass density: 980.8 ± 1.2 kg/m3
343.16 K, 34342 kPa
  mass density: 980.9 ± 1.2 kg/m3
343.16 K, 34350 kPa
  mass density: 980.9 ± 1.2 kg/m3
343.16 K, 34356 kPa
  mass density: 980.9 ± 1.2 kg/m3
343.16 K, 34361 kPa
  mass density: 980.9 ± 1.2 kg/m3
343.16 K, 34363 kPa
  mass density: 980.9 ± 1.2 kg/m3
343.16 K, 34369 kPa
  mass density: 981 ± 1.2 kg/m3
343.17 K, 21206 kPa
  mass density: 972.4 ± 1.2 kg/m3
343.17 K, 30224 kPa
  mass density: 978.4 ± 1.2 kg/m3
343.17 K, 30254 kPa
  mass density: 978.3 ± 1.2 kg/m3
343.17 K, 30283 kPa
  mass density: 978.4 ± 1.2 kg/m3
343.17 K, 30312 kPa
  mass density: 978.5 ± 1.2 kg/m3
343.17 K, 30333 kPa
  mass density: 978.4 ± 1.2 kg/m3
343.17 K, 30358 kPa
  mass density: 978.5 ± 1.2 kg/m3
343.17 K, 30380 kPa
  mass density: 978.5 ± 1.2 kg/m3
343.17 K, 30402 kPa
  mass density: 978.4 ± 1.2 kg/m3
343.17 K, 30428 kPa
  mass density: 978.5 ± 1.2 kg/m3
343.17 K, 30449 kPa
  mass density: 978.5 ± 1.2 kg/m3
343.17 K, 30471 kPa
  mass density: 978.6 ± 1.2 kg/m3
343.17 K, 30497 kPa
  mass density: 978.5 ± 1.2 kg/m3
343.17 K, 31456 kPa
  mass density: 979.2 ± 1.2 kg/m3
